Legend:
[1] = tested on: rat suffering from experimental allergenic conjunctivitis; experiment: Evaluation test of itching suppression effect in rat model of chronically allergic conjunctivitis; format: in vivo; conditions: 5 μl eye drops to both eyes 5 min before local sensitizing reagent (egg albumin), scratching observed 20 min, repeated 8 days, total for 8 days vs test formulation No. 1 (FIG. 1, 2; significant level of 5%)
Protocol: 0.6 ml of a primary sensitizing reagent (a solution prepared by dissolving 20 mg of egg albumin, 40 mg of aluminum hydroxide gel and 2×10^11 units of an inactivated pertussis antigen in physiological saline) was administered to the footpads of both hands and both feet of a rat by using a 24G injection needle. Five days after the administration of the primary sensitizing reagent, 1 ml of a secondary sensitizing reagent (a solution prepared by dissolving 50 mg of egg albumin in 100 ml of physiological saline) was injected hypodermically into the back portion of the rat by using a 27G injection needle. From 14-th to 42-th days after the administration of the primary sensitizing reagent, 5 μl of drops of a local sensitizing reagent (a solution prepared by dissolving 500 mg of egg albumin in 50 ml of physiological saline) was administered to the both eyes of the rat, and the rat was put in an observation cage to observe the “scratching” of the rat for 20 minutes right after the administration of the ophthalmic solution. The rat which took this action 10 times or more within 20 minutes was used as a “rat suffering from experimental allergenic conjunctivitis” in the experiment. […]

[2] = tested on: rat administered with an ophthalmic solution of histamine; experiment: Effect of suppressing histamine-induced pruritus; format: in vivo; conditions: 5 μl eye drops to both eyes 5 min before histamine 10 μmol/5 μl; scratching observed 20 min (FIG. 4)
Protocol: In experiments on the evaluation of the effect of suppressing histamine-induced pruritus, test formulation No. 1 (0% of sodium D-3-hydroxybutyrate, referred to as PBS in FIG. 4) and test formulation No. 4 (1.0% of sodium D-3-hydroxybutyrate, referred to as 1% HBA in FIG. 4) shown in Table 1 and Intal (2% of sodium cromoglycate) and Livostin (0.025% of levocabastine hydrochloride) as Comparative formulation were used.
5 μl of an ophthalmic solution of the test formulation or Comparative formulation was administered to the both eyes of each rat each time. Five minutes after this, 10 μmol/5 μl of an ophthalmic solution of histamine was administered to one eye each time to induce pruritus in the rat. […] Meanwhile, Intal which is a chemical mediator isolation inhibitor was not effective (FIG. 4).

C[C@@H](O)CC(=O)[O-].[Na+] [Sodium D-3-hydroxybutyrate]
number of times of scratching (itching suppression effect) [1]: suppressed the scratching of the rat suffering from an experimental allergy, dependent upon its volume
number of times of scratching (itching suppression effect) ([1]; listed as sodium D-3-hydroxybutyrate): excellent pruritus suppression effect
scratching after histamine ophthalmic solution (effect of suppressing itching) [2]: excellent pruritus suppression effect

Source: patent US20100056631A1, “ANTIALLERGENIC COMPOSITION” (OPHTECS CORPORATION, priority 2006, published 2010)
